Experimental data as given in patent publication US5587402A, “Regression of mammalian leukemia cell tumors” (priority 1995, dated 1996).
Entries after “also recorded” stand apart in the source; their conditions may differ.

Assays:
[1] = tested on: bcr/abl-induced leukemia in mice; assay: bcr/abl-induced leukemia in mice fed perillyl alcohol diet; type: in vivo, mouse; settings: diet containing 2% perillyl alcohol
From the text: Experiments were done in which the non-malignant mouse bone marrow cell line, FDC-P1, was transformed with a retrovirus engineered to express the p210 bcr/abl oncogene. As described above, the bcr/abl oncogene plays a major role in the development of human Philadelphia chromosome (Ph) positive leukemias. Therefore, this mouse system represents a model of Ph^+ human leukemia. Injection of syngeneic animals with the bcr/abl transformed FDC-P1 cells induces lethal hematopoietic malignancy in which all animals had died within 30 days post-injection (absent perillyl alcohol).
Animals were fed either a control diet or a diet containing 2% perillyl alcohol and were challenged with either 3×10^5 or 3×10^6 bcr/abl-transformed cells. All animals on the control diet died by day 26.

NIH3T3 cells = assay: Inhibition of NIH3T3 cell growth; type: cell-based, mouse; settings: FIG. 3
Method: (§1) NIH3T3 (mouse embryo) cells were obtained from the American Type Culture Collection and were grown in Dulbecco's modified Eagle's medium supplemented with 10% calf serum. M600B immortalized human mammary epithelial cells (Stampfer, M. R., 1985, J. Tissue Culture Methods 9: 107-115) were obtained from Dr. Martha Stampfer and were grown in supplemented HCDB 170 medium (Hammond, et al. (1984) Proc. Natl. Acad. Sci U.S.A. 81: 5435-5439), as described previously (Stampfer, et al. (1985) Proc. Natl. Acad. Sci U.S.A. 82: 2394-2398; Eldridge, et al. (1989) Cancer Res. 49: 4326-4331).
(§2) All cells were maintained in 100-mm dishes at 37° C. in a humidified 5% CO2 atmosphere. Viable cells were distinguished from nonviable cells by counting azure II/methylene blue-stained colonies 10 days after the cells were plated at a density of 100 cells per dish. Trypan blue exclusion was measured by incubating cells for 1 minute with one drop of trypan blue per 10 ml of cells. Viable (colorless) and nonviable (blue) cells were then counted on a hemocytometer.
(§3) Additionally, growth of HT29 (human colon adenocarcinoma) cells was inhibited by 80% by 1 mM perillyl alcohol.

[2] = tested on: isoprenylation of 21-26 kDa proteins in HT29 cells; assay: Protein isoprenylation in HT29 cells; type: cell-based; settings: Homo sapiens, HT-29; 1 mM; read-out: decrease of isoprenylation of 21-26 kDa proteins
Method: "Isoprenylation" is the addition of a multiple of the 5 carbon isoprene unit to a protein. Our experiments in isoprenylation are reported at Crowell, et al. 1991, J. Biol. Chem. 266: 17679-17685. To test whether a specific monoterpene affects isoprenylation of proteins in cells, cell extracts were incubated with a radioactive isoprene precursor and 0-5 mM of the test monoterpene and then subjected to SDS-PAGE. Because they carried a radioactive label, isoprenylated proteins were visualized by fluorography. As a control, cells were incubated without the monoterpene.
Cells were harvested after trypsin treatment, washed twice with phosphate-buffered saline, suspended in electrophoresis sample buffer (Laemmli, U.K., 1970, Nature 227: 680-685), and either analyzed immediately or stored at -20° C. Whole cell extracts were analyzed by SDS-PAGE on 16-cm×18-cm×0.75-mm gels by the method of Laemmli (supra). The acrylamide concentrations were 5% for the stacking gel and 12% for the separating gel. […] Some fluorograms were analyzed further by densitometry. Where indicated, gels were sliced, dissolved at 50° C. for 3 hours in 0.5 ml of water +0.5 ml of Solvable (Amersham), and then analyzed by scintillation spectrometry in 10 ml of Atomlight (Amersham) mixture. Protein content was measured by the method of Lowry, et al. (1951, J. Biol. Chem. 193: 265-275). […]

[3] = Toxicity of dietary perillyl alcohol in rats; type: in vivo, Wistar-Furth female rats
Method: We used Wistar-Furth female rats for in vivo studies. Wistar-Furth female rats were obtained from Harlan Sprague-Dawley, Inc., (Madison, Wis.). All rats, arriving at 43-48 days of age, were housed at four rats per cage in wire-bottom metal cages and all were maintained with a light/dark cycle of 12 hours. Rates were provided Teklad Lab blox chow and acidified water ad libitum.
In the pair-feeding study, a group of 70 mammals was treated with DMBA. Beginning four weeks post-carcinogen administration, mammals were weighed and palpated weekly. Upon palpation of the first mammary tumor(s) (diameter≥3 mm), mammals were randomly assigned to control or 2.5% (w/w) perillyl alcohol diet and pair-fed.
Perillyl alcohol (>96% pure by GC analysis, Aldrich, Milwaukee, Wis.) and Teklad 4% mouse/rat diet meal were thoroughly mixed and stored at -20° C. Fresh diets were make every 7-10 days. All mammals were provided fresh diet daily to minimize evaporation of the monoterpenes. For pair-feeding, the quantity of diet consumed by the monoterpene-fed mammals was measured every 24 hours and the assigned partner was pair-fed accordingly.

[4] = tested on: p210-transformed FDC-P1 cells; assay: Proliferation of p210 bcr/abl-transformed FDC-P1 myeloid cells; type: cell-based, murine
Method: (The p210 bcr/abl oncogene is carried on a helper-free retrovirus referred to as "p210.") FDC-P1 myeloid cells are an immature cell line from myeloid lineage derived from mouse bone marrow (Dexter, TM, J. Exp. Med. 152: 1036-1047, 1980).

[5] = tested on: nontransformed FDC-P1 cells; assay: Cell cycle distribution of nontransformed FDC-P1 cells; type: cell-based, murine; settings: for Cell cycle distribution (% > GO /G1): 24 hours, untreated control 62
Method: Table 3 tabulates the effect of P-OH on cell cycle distribution of nontransformed and p210 transformed FDC-P1 cells.
^1 Cells were plated at 2.5 × 10^5 per ml in duplicate well
of a 24well plate in the presence of 10% WEHI3-conditioned media as a
source of IL3 and with the indicated concentration of P--OH. After 24
hours, the cells were fixed in ethanol, permeabilized and stained with
propidium iodide, then analyzed for DNA content by flow cytometry.
^2 FDCP1 = nontransformed cells, Fp210.1 = 210transformed FDCP1 cells

M600B cells = assay: Inhibition of M600B cell growth; type: cell-based, human; settings: FIG. 4
Method: as §1, §2, §3

Structure (SMILES): C=C(C)[C@@H]1CC=C(CO)CC1 [perillyl alcohol]
- animals surviving longer than control animals ([1]; 3×10^5 or 3×10^6 cells, controls all died by day 26): about 20%
- diet acceptance ([1]; most mice): most mice resisted the perillyl alcohol diet
- inhibition of cell growth (NIH3T3 cells): significantly inhibited cell growth in a dose-dependent manner
- inhibition at 1000 µM [2]: 40%
- maximum dose tolerated (diet) ([3]; diet, data not shown): 2.5%
- body weight ([3]; perillyl alcohol-fed versus control, FIG. 8): initial weight loss followed by weight gain and a plateau; also recorded: did not achieve weights similar to controls
- growth inhibition, transformed versus nontransformed cells ([4]; 100-800 μM, FIG. 9B): significantly more inhibitory for the growth of p210-transformed FDC-P1 cells compared to nontransformed FDC-P1 cells
- growth-inhibitory curve with added IL-3 ([4]; IL-3 added): significantly shifted upward
- inhibition at 400 µM ([4]; Mus musculus, FDC-P1, read-out: inhibition of growth): > 80%
- reversion of autonomously growing malignant cells ([4]; conclusion from in vitro results): reverts autonomously growing malignant cells to a factor-dependent, apoptosis-sensitive state
- Cell cycle distribution (% > GO /G1) ([5]; 100 μM P--OH): 57%
- Cell cycle distribution (% > GO /G1) ([5]; 500 μM P--OH): 49%
- changes in the cell cycle distribution ([5]; up to 500 μM): only minor changes
- inhibition of cell growth (M600B cells): significantly inhibited cell growth in a dose-dependent manner
